{"source": "patent US9221810B2", "about": "“Substituted bicyclic aromatic compounds as S-nitrosoglutathione reductase inhibitors” (Nivalis Therapeutics, Inc., priority 2010, dated 2015)"}
{"target": "T1, GSNOR (Homo sapiens, UniProt P11766)", "T1 construct": "made in house; host or cells: E. coli (arabinose-induced)", "T1 sequence (P11766 whole entry)": "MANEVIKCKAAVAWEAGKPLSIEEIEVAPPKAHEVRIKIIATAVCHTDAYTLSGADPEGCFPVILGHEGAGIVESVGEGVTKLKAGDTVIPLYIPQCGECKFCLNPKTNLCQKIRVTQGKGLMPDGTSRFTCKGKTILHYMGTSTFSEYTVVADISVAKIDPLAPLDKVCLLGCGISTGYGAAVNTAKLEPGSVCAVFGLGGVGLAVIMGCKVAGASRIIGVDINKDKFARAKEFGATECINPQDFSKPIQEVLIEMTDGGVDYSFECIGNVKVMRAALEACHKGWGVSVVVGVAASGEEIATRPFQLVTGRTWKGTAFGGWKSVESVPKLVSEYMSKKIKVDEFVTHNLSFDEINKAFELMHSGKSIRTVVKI", "test": "GSNOR assay (inhibition of GSNOR activity, NADH absorbance at 340 nm)", "assay_type": "biochemical", "conditions": "printed as 'about <'; 0.240 mM GSNO, 0.300 mM NADH, pH 7.4, 25° C.", "experimental": "GSNOR expression and purification is described in Biochemistry 2000, 39, 10720-10729.\nGSNOR Fermentation: Pre-cultures were grown from stabs of a GSNOR glycerol stock in 2XYT media containing 100 ug/ml ampicillin after an overnight incubation at 37° C. Cells were then added to fresh 2XYT (4 L) containing ampicillin and grown to an OD (A600) of 0.6-0.9 at 37° C. before induction. GSNOR expression was induced with 0.1% arabinose in an overnight incubation at 20° C.\nGSNOR Purification: E. coli cell paste was lysed by nitrogen cavitation and the clarified lysate purified by Ni affinity chromatography on an AKTA FPLC (Amersham Pharmacia). The column was eluted in 20 mM Tris pH 8.0/250 mM NaCl with a 0-500 mM imidazole gradient. Eluted GSNOR fractions containing the Smt-GSNOR fusion were digested overnight with Ulp-1 at 4° C. to remove the affinity tag then re-run on the Ni column under the same conditions. GSNOR was recovered in the flowthrough fraction and for crystallography is further purified by Q-Sepharose and Heparin flowthrough chromatography in 20 mM Tris pH 8.0, 1 mM DTT, 10 uM ZnSO4.\nGSNOR Assay: GSNO and enzyme/NADH Solutions are made up fresh each day. The solutions are filtered and allowed to warm to room temperature. GSNO solution: 100 mM NaPO4 (pH 7.4), 0.480 mM GSNO. 396 μL of GSNO Solution is added to a cuvette followed by 8 μL of test compound in DMSO (or DMSO only for full reaction control) and mixed with the pipette tip. Compounds to be tested are made up at a stock concentration of 10 mM in 100% DMSO. 2 fold serial dilutions are done in 100% DMSO. 8 μL of each dilution are added to an assay so that the final concentration of DMSO in the assay is 1%. The concentrations of compounds tested range from 100 to 0.003 μM. Enzyme/NADH solution: 100 mM NaPO4 (pH 7.4), 0.600 mM NADH, 1.0 μg/mL GSNO Reductase. 396 μL of the Enzyme/NADH solution is added to the cuvette to start the reaction. The cuvette is placed in the Cary 3E UV/Visible Spectrophotometer and the change in 340 nm absorbance/min at 25° C. is recorded for 3 minutes. The assays are done in triplicate for each compound concentration. IC50's for each compound are calculated using the standard curve analysis in the Enzyme Kinetics Module of SigmaPlot.\nFinal assay conditions: 100 mM NaPO4, pH 7.4, 0.240 mM GSNO, 0.300 mM NADH, 0.5 μg/mL GSNO Reductase, and 1% DMSO. Final volume: 800 μL/cuvette.", "units": {"IC50": "nM"}}
{"smiles": "O=C(O)c1ccc(-c2cc(F)c3cc(O)ccc3n2)c(Cl)c1", "note": "[Example 37, 3-chloro-4-(4-fluoro-6-hydroxyquinolin-2-yl)benzoic acid]", "IC50": "< 100"}
{"smiles": "O=C(O)c1ccc(-c2cc3ccc(O)cc3cn2)c(F)c1", "note": "[Example 65, 3-fluoro-4-(7-hydroxyisoquinolin-3-yl)benzoic acid]", "IC50": "< 100"}
{"smiles": "O=C(O)c1ccc(-c2ccc3cc(O)ccc3n2)c(C(F)(F)F)c1", "note": "[Example 30, 4-(6-hydroxyquinolin-2-yl)-3-(trifluoromethyl)benzoic acid]", "IC50": "< 100"}
{"smiles": "O=C(O)[C@H]1CC[C@H](c2ccc3cc(O)ccc3n2)CC1", "note": "[Example 6, (1r,4r)-4-(6-hydroxyquinolin-2-yl)cyclohexanecarboxylic acid]", "IC50": "< 500"}
{"smiles": "O=C(O)[C@H]1CC[C@H](c2nc3ccc(O)cc3cc2C(F)(F)F)CC1", "note": "[Example 43, (1r,4r)-4-(6-hydroxy-3-(trifluoromethyl)quinolin-2-yl)cyclohexanecarboxylic acid]", "IC50": "< 100"}
{"smiles": "O=C(O)c1ccc(-c2ncc3cc(O)ccc3n2)cc1", "note": "[Example 45, 4-(6-hydroxyquinazolin-2-yl)benzoic acid]", "IC50": "< 100"}
{"smiles": "O=C(O)c1ccc(-c2nc3ccc(O)cc3cc2C(F)(F)F)cc1", "note": "[Example 31, 4-(6-hydroxy-3-(trifluoromethyl)quinolin-2-yl)benzoic acid]", "IC50": "< 100"}
{"system": "acute dextran sodium sulfate (DSS)-induced IBD", "test": "Acute prophylactic model of DSS-induced IBD in mice", "assay_type": "in vivo, male C57Bl/6 mice", "conditions": "oral 10 mg/kg/day for 10 consecutive days, prophylactic", "from_the_text": "Acute and chronic models of dextran sodium sulfate (DSS)-induced IBD in mice were used to explore efficacy of GSNORi against this disease. Acute and chronic DSS-induced IBD are widely used and well characterized models that induce pathological changes in the colon similar to those observed in the human disease. In these models and in human disease, epithelial cells within the crypts of the colon are disrupted, leading to dysfunction of the epithelial barrier and the ensuing tissue inflammation, edema, and ulceration. GSNORi therapy may benefit IBD by restoring s-nitrosoglutathione (GSNO) levels, and thus prevent or reverse the epithelial barrier dysfunction. Experimental IBD was induced by administration of DSS in the drinking water of male C57Bl/6 mice (N=8 to 10 mice per group) for 6 consecutive days. GSNORi was dosed orally at doses of 0.1 to 10 mg/kg/day for 10 days starting two days prior to and continuing two days post DSS exposure. Two days post DSS exposure, the effect of GSNORi was assessed in a blinded fashion via endoscopy and histopathology using a five point scale ranging from a score=0 (normal tissue) through a score=4 (ulcerative tissue damage and marked pathological changes). Levels of circulating cytokines involved in inflammatory pathways were also assessed. The effect of GSNORi was compared to vehicle treated controls. The corticosteroid, prednisolone, was used as the positive control in this study and was administered daily at 3 mg/kg/day via oral dosing. Naïve mice (N=5) were also assessed as a normal tissue control."}
{"smiles": "O=C(O)c1ccc(-c2nc3ccc(O)cc3cc2Cl)cc1", "note": "[Example 19, 4-(3-chloro-6-hydroxyquinolin-2-yl)benzoic acid]", "decrease of percent of mice with severe colon injury scores via endoscopy": "31 % of vehicle control"}
{"system": "cigarette smoke-induced COPD (subchronic 11 day)", "test": "Subchronic (11 day) cigarette smoke exposure COPD model", "assay_type": "in vivo, female C57Bl/6 mice", "conditions": "subchronic 11 day model; roflumilast 5 mg/kg/day", "experimental": "The efficacy of GSNOR inhibitors was assessed in a mouse model of chronic obstructive pulmonary disease (COPD) induced by short duration (4 days or 11 days) of exposure to cigarette smoke. Infiltration of inflammatory cells into the bronchoalveolar lavage fluid (BALF) and BALF levels of chemokines involved in inflammation and tissue turnover/repair were measured to assess the influences of GSNOR inhibitors on some of the early events associated with the initiation and progression of COPD.\nEfficacy of GSNOR inhibitors against COPD was explored using acute (4 day) and subchronic (11 day) models of cigarette smoke-induced COPD in mice. […] In animal models, changes in lung pathology are only evident after extended (several months) duration of exposure to cigarette smoke, thus making chronic models prohibitive as effective screening tools. More recently, models exploring inflammatory responses after short duration (2 weeks or less) of smoke exposure in mice have been utilized as tools for screening efficacy and mechanisms of action of novel therapeutics against COPD. The key roles of inflammation in the initiation and progression of COPD, make these short duration models relevant for initial tests of efficacy of novel therapeutics.\nSubchronic (11 Day) Smoke Exposure Model: Female C57Bl/6 mice (N=10 per group) were exposed to cigarette smoke generated from Marlboro 100 cigarettes without filters. Exposure times were 25 min. on study day 1, 35 min. on study day 2, and 45 min. on study days 3 to 11. GSNOR inhibitors were administered one hour prior to smoke exposure on each day. GSNOR inhibitors were dosed orally at 1 to 10 mg/kg/day for 11 days. The effects of GSNOR inhibitors were assessed by quantitating the number of total cells, and leukocytes differentials in the BALF via light microscopy at 24 h after the last exposure. The effect of GSNOR inhibitors were compared to vehicle treated controls and expressed as percent inhibition of the cigarette smoke induced increases in BALF cell numbers. Roflumilast was used as the positive control for the study and was dosed at 5 mg/kg/day. A group of naïve mice (N=10) was exposed to air and dosed with vehicle as a negative control for the study."}
{"smiles": "O=C(O)c1ccc(-c2ccc3cc(O)ccc3n2)c(F)c1", "note": "[Example 13, 3-fluoro-4-(6-hydroxyquinolin-2-yl)benzoic acid]", "effects compared to roflumilast (positive control)": "comparable to those of roflumilast"}
{"smiles": "Cc1cc(C(=O)O)ccc1-c1ccc2cc(O)ccc2n1", "note": "[Example 27, 4-(6-hydroxyquinolin-2-yl)-3-methylbenzoic acid]", "effects compared to roflumilast (positive control)": "comparable to those of roflumilast"}
{"system": "not listed separately", "test": "Mouse pharmacokinetic (PK) study", "assay_type": "in vivo, male BALB/c mice", "conditions": "male, BALB/c, plasma, po, 10 mg/kg, IV 2 mg/kg, read-out: oral bioavailability (% F)", "from_the_text": "The mouse was used to determine the pharmacokinetics of compounds of the invention. This species is widely used to assess the bioavailability of compounds by administering both oral (PO) and intravenous (IV) test articles. Efficacy of the compounds of the invention was compared by assessing plasma exposure in male BALB/c mice either via IV or PO administration at the times of peak activity.\nCompounds of the invention were reconstituted in a phosphate buffered saline (PBS)/10% Solutol (HS 15) clear solution resulting in a concentration of 0.2 mg/mL and administered to mice (2 mg/kg) as a single IV dose. Animals were dosed via the lateral tail vein. Blood samples were collected at designated time points (0.083, 0.25, 0.5, 1, 2, 4, 8, 16, 24 hours) by cardiac puncture under isoflurane anesthesia (up to 1 mL blood per animal). The blood was collected into tubes containing Li-Heparin. The blood samples were kept on ice until centrifugation within approximately 30 minutes of collection. The plasma was transferred into labeled polypropylene tubes and frozen at −70° C. until analyzed by LC/MS/MS.\nThe compounds of the invention were reconstituted in 40% Propylene Glycol/40% Propylene Carbonate/20% of a 5% Sucrose clear solution resulting in a concentration of 2 mg/mL and administered to mice (10 mg/kg) as a single oral dose via gavage. Blood samples were collected at 0.25, 0.5, 1, 2, 4, 8, 12, 16, 20 and 24 hours post dose by cardiac puncture under isoflurane anesthesia. The blood was collected in tubes containing Li-Heparin. […] The plasma was transferred into labeled polypropylene tubes and frozen at −70° C. until analyzed by LC/MS/MS.\nPlasma samples at each timepoint were analyzed using a LC-MS/MS with a lower limit of quantification (LLOQ) of 1 ng/mL. Plasma was analyzed to determine the amount of the compound of the invention in each sample and regression curves generated for each compounds of the invention in the relevant matrixes. […]\nIn addition to the above PK parameters, bioavailability (% F) was calculated.", "units": {"bioavailability": "%"}}
{"smiles": "O=C(O)c1ccc(-c2nc3ccc(O)cc3cc2Cl)cc1", "note": "[Example 19, 4-(3-chloro-6-hydroxyquinolin-2-yl)benzoic acid]", "bioavailability": "> 9"}
{"smiles": "O=C(O)c1ccc(-c2nc3ccc(O)cc3cc2Cl)c(F)c1", "note": "[Example 28, 4-(3-chloro-6-hydroxyquinolin-2-yl)-3-fluorobenzoic acid]", "bioavailability": "> 9"}
